Measured values from publication PMC8630693 (2021).

Columns and labels:
[1] = test system: RNA G-quadruplex (VEGF), unlabelled (RNA, G4) GGAGGAGGGGGAGGAGG; experiment: CD melting; settings: 100 mM KCl/NaCl (so in the source); 10 mM Tris pH 7.4; 3:1 OMT/G-quadruplex; 10 µM RNA; Tm 72.7 to 76.3
[2] = test system: BCL-2 RT template (RNA, G4) UAAUACGACUCACUAUAGGGCAUGCCAAGGGGGAAACACCAGAAUCAAGUGUUCCGCGUGAUUGAAGACACCCCCUCGUCCAAGAAUGCAAAGCACAUCCAGGGGGCCGUGGGGUGGGAGCUGGGGAUAAAAUAGCUGGAUUAUAACUCCUCUUCUUUCUCUCGAGAGGUGCCGUUGGCCCCCGUUGCUUUUCCUCUGGGAAGGAUG; experiment: reverse transcriptase stop assay, qPCR; settings: MgCl2 (concentration not stated), 10 µM compound, 100 nM template, 37°C
[3] = test system: RNA G-quadruplex (VEGF), unlabelled (RNA, G4) GGAGGAGGGGGAGGAGG; experiment: ESI-MS; settings: 100 mM trimethylammonium acetate; 50% methanol; 10 µM RNA, 30 µM OMT
[4] = test system: BCL-2 RNA G-quadruplex (SPR) (RNA, G4) GGGGGCCGUGGGGUGGGAGCUGGGG; experiment: SPR; settings: 100 mM KCl; 10 mM HEPES pH 7.4, 25°C; highest OMT 200 µM
[5] = test system: mut 4 (RNA, G4) UGAGGAGGGGGAGGAUG; experiment: SPR; settings: 100 mM KCl; 10 mM HEPES pH 7.4, 25°C; highest OMT 200 µM
[6] = test system: mut 2 (RNA, G4) UGAGGAGGGUGAGGAGG; experiment: SPR; settings: 100 mM KCl; 10 mM HEPES pH 7.4, 25°C; printed kd/ka gives 1.01e-2
[7] = test system: mut 3 (RNA, G4) GGAGGAGGGUGAGUAGG; experiment: SPR; settings: 100 mM KCl; 10 mM HEPES pH 7.4, 25°C; highest OMT 200 µM
[8] = test system: mut 1 (RNA, G4) GGAUGAGUGGGAGGAGG; experiment: SPR; settings: 100 mM KCl; 10 mM HEPES pH 7.4, 25°C; printed kd/ka gives 3.9e-3
[9] = test system: NRAS RNA G-quadruplex (SPR) (RNA, G4) UGUGGGAGGGGCGGGUCUGGG; experiment: SPR; settings: 100 mM KCl; 10 mM HEPES pH 7.4, 25°C; highest OMT 200 µM
[10] = test system: DNA double strand (DNA, duplex) GCGCGCGCGCGCGCGCGCGCGCGC; experiment: UV melting; settings: 100 mM KCl/NaCl (so in the source); 10 mM Tris pH 7.4

| SMILES | ΔTm [1] [°C] | binding [2] | binding [3] | binding [4] | binding [5] | KD [6] [µM] | binding [7] | KD [8] [µM] | binding [9] | binding [10] | ΔCt ([2]; not a binding constant) |
| --- | --- | --- | --- | --- | --- | --- | --- | --- | --- | --- | --- |
| O=C1CCC[C@@H]2[C@H]3CCC[N+]4([O-])CCC[C@@H](CN12)[C@@H]34 (some centres unmarked) | 3.6 | no | yes | no | no | 101 | no | 39 | no | no | – |
| C[n+]1ccc(-c2c3nc(c(-c4cc[n+](C)cc4)c4ccc([nH]4)c(-c4cc[n+](C)cc4)c4nc(c(-c5cc[n+](C)cc5)c5ccc2[nH]5)C=C4)C=C3)cc1 | – | – | – | – | – | – | – | – | – | – | > 2 |
